# Literature values, collected in patent US11576379B2, “Antimicrobial composition comprising alkylated polyvinylpyrrolidone polymer” (The Procter & Gamble Company, priority 2019, dated 2023).
smiles,measurement,value
"CC(=O)O.CC(=O)O.NC(=N\CCCCCC/N=C(N)/N=C(\N)Nc1ccc(Cl)cc1)/N=C(\N)Nc1ccc(Cl)cc1 [Chlorhexidine diaceate, Chlorhexidine diacetate]",Solubility in water,~1%
